Data published in ChEMBL document CHEMBL1201862, “PubChem BioAssay data set” (2004).
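Five concentrations, 48 hours, 96-well plates. GI50: concentration for 50% inhibition of growth.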 Active and inactive are the calls of the source. Cut-off read from the data, not from the text of the source: active = GI50 up to about 1.1 µM and inactive = higher.

Key:
Test in all cases: inhibition of tumour cell growth, NCI panel, 48 h
[1] = test system: HT-29
[2] = test system: DU-145
[3] = test system: SK-MEL-2
[4] = test system: K562
[5] = test system: MCF7
[6] = test system: COLO 205
[7] = test system: MDA-N
[8] = test system: NCI/ADR-RES
[9] = test system: A498
[10] = test system: SF-295
[11] = test system: HOP-92
[12] = test system: RXF 393
[13] = test system: SF-539
[14] = test system: MDA-MB-231
[15] = test system: NCI-H23
[16] = test system: ACHN
[17] = test system: TK-10
[18] = test system: SW-620
[19] = test system: OVCAR-4
[20] = test system: HCT-15
[21] = test system: SNB-19
[22] = test system: CCRF-CEM
[23] = test system: SK-OV-3
[24] = test system: SF-268
[25] = test system: LOX IMVI
[26] = test system: MDA-MB-435
[27] = test system: SK-MEL-28
[28] = test system: U-251
[29] = test system: HL-60
[30] = test system: HCT-116
[31] = test system: NCI-H226
[32] = test system: 786-0
[33] = test system: Malme-3M
[34] = test system: BT-549
[35] = test system: RPMI-8226
[36] = test system: UO-31
[37] = test system: HCC 2998
[38] = test system: SN12C
[39] = test system: IGROV-1
[40] = test system: UACC-257
[41] = test system: NCI-H522
[42] = test system: A549
[43] = test system: HOP-62
[44] = test system: OVCAR-8
[45] = test system: T47D
[46] = test system: M14
[47] = test system: OVCAR-3
[48] = test system: CAKI-1
[49] = test system: Hs-578T
[50] = test system: UACC-62
[51] = test system: NCI-H460
[52] = test system: MOLT-4
[53] = test system: SR
[54] = test system: SK-MEL-5
[55] = test system: OVCAR-5
[56] = test system: PC-3
[57] = test system: KM12
[58] = test system: EKVX
[59] = test system: SNB-75

In the case of `COC(=O)[C@]12CC[C@H]3CN(C(=O)OCc4ccccc4)[C@H]([C@H]31)[C@H](C(=O)OCC[Si](C)(C)C)N2S(=O)(=O)c1ccc(C)cc1`, the GI50 [1] is reported as 42.7 µM (inactive), the GI50 [2] is reported as > 100 µM (inactive) and the GI50 [3] is reported as 96.4 µM (inactive). The GI50 [4] was 15.3 µM (inactive), the GI50 [5] was 37.3 µM (inactive) and the GI50 [6] was 17.5 µM (inactive). The GI50 [7] was 74 µM (inactive), the GI50 [8] was > 100 µM (inactive) and the GI50 [9] was 16.7 µM (inactive). For the same compound, the GI50 [10] was 29 µM (inactive), the GI50 [11] was 3.13 µM (inactive) and the GI50 [12] was 4.74 µM (inactive). For the same compound, the GI50 [13] was > 100 µM (inactive), the GI50 [14] was 8.13 µM (inactive) and the GI50 [15] was > 100 µM (inactive). The GI50 [16] was 54.7 µM (inactive), the GI50 [17] was > 100 µM (inactive) and the GI50 [18] was > 100 µM (inactive). The GI50 [19] was 11.4 µM (inactive), the GI50 [20] was > 100 µM and the GI50 [21] was > 100 µM (inactive). For the same compound, the GI50 [22] was 54 µM (inactive), the GI50 [23] was > 100 µM (inactive) and the GI50 [24] was > 100 µM (inactive). The GI50 [25] was 94.4 µM (inactive), the GI50 [26] was > 100 µM (inactive) and the GI50 [27] was > 100 µM (inactive). For the same compound, the GI50 [28] was > 100 µM (inactive), the GI50 [29] was 8.85 µM (inactive) and the GI50 [30] was 23 µM (inactive). For the same compound, the GI50 [31] was > 100 µM (inactive), the GI50 [32] was > 100 µM (inactive) and the GI50 [33] was 96.6 µM (inactive). For the same compound, the GI50 [34] was > 100 µM (inactive), the GI50 [35] was 8.45 µM (inactive) and the GI50 [36] was 30.3 µM (inactive). The GI50 [37] was > 100 µM (inactive), the GI50 [38] was > 100 µM (inactive) and the GI50 [39] was > 100 µM (inactive). The GI50 [40] was 20 µM (inactive), the GI50 [41] was > 100 µM (inactive) and the GI50 [42] was 18.4 µM (inactive). For the same compound, the GI50 [43] was > 100 µM (inactive), the GI50 [44] was > 100 µM (inactive) and the GI50 [45] was 5.32 µM (inactive). The GI50 [46] was 26.5 µM (inactive), the GI50 [47] was > 100 µM (inactive) and the GI50 [48] was > 100 µM (inactive). For the same compound, the GI50 [49] was > 100 µM (inactive), the GI50 [50] was > 100 µM (inactive) and the GI50 [51] was > 100 µM (inactive). For the same compound, the GI50 [52] was 19.5 µM (inactive), the GI50 [53] was 39.2 µM (inactive) and the GI50 [54] was 12.2 µM (inactive). The GI50 [55] was > 100 µM (inactive), the GI50 [56] was 12.1 µM (inactive) and the GI50 [57] was 97.3 µM (inactive). The GI50 [58] was 89.9 µM (inactive).
With `CC(C)[C@@H]1ON1C(C)c1ccccc1` (stereo partly specified) the GI50 [1] was > 100 µM (inactive), the GI50 [2] was > 100 µM (inactive) and the GI50 [4] was > 100 µM (inactive). For the same compound, the GI50 [5] was 13.7 µM (inactive), the GI50 [6] was > 100 µM (inactive) and the GI50 [7] was > 100 µM (inactive). The GI50 [8] was > 100 µM (inactive), the GI50 [9] was > 100 µM (inactive) and the GI50 [10] was > 100 µM (inactive). For the same compound, the GI50 [11] was > 100 µM (inactive), the GI50 [12] was > 100 µM (inactive) and the GI50 [13] was > 100 µM (inactive). The GI50 [14] was > 100 µM (inactive), the GI50 [15] was > 100 µM (inactive) and the GI50 [16] was > 100 µM (inactive). For the same compound, the GI50 [17] was > 100 µM (inactive), the GI50 [18] was > 100 µM (inactive) and the GI50 [19] was > 100 µM (inactive). For the same compound, the GI50 [20] was 79.6 µM, the GI50 [21] was > 100 µM (inactive) and the GI50 [22] was > 100 µM (inactive). For the same compound, the GI50 [23] was > 100 µM (inactive), the GI50 [24] was > 100 µM (inactive) and the GI50 [25] was > 100 µM (inactive). The GI50 [26] was > 100 µM (inactive), the GI50 [27] was > 100 µM (inactive) and the GI50 [28] was > 100 µM (inactive). The GI50 [29] was 94.8 µM (inactive), the GI50 [30] was > 100 µM (inactive) and the GI50 [31] was > 100 µM (inactive). For the same compound, the GI50 [32] was > 100 µM (inactive), the GI50 [33] was > 100 µM (inactive) and the GI50 [34] was > 100 µM (inactive). For the same compound, the GI50 [35] was > 100 µM (inactive), the GI50 [36] was > 100 µM (inactive) and the GI50 [37] was > 100 µM (inactive). The GI50 [38] was > 100 µM (inactive), the GI50 [39] was 70.6 µM (inactive) and the GI50 [40] was > 100 µM (inactive). For the same compound, the GI50 [41] was > 100 µM (inactive), the GI50 [42] was > 100 µM (inactive) and the GI50 [43] was > 100 µM (inactive). The GI50 [44] was > 100 µM (inactive), the GI50 [45] was > 100 µM (inactive) and the GI50 [46] was > 100 µM (inactive). For the same compound, the GI50 [47] was > 100 µM (inactive), the GI50 [48] was 17.1 µM (inactive) and the GI50 [49] was > 100 µM (inactive). The GI50 [50] was > 100 µM (inactive), the GI50 [51] was > 100 µM (inactive) and the GI50 [59] was > 100 µM (inactive). For the same compound, the GI50 [52] was > 100 µM (inactive), the GI50 [53] was > 100 µM (inactive) and the GI50 [54] was > 100 µM (inactive). The GI50 [55] was > 100 µM (inactive), the GI50 [56] was > 100 µM (inactive) and the GI50 [57] was > 100 µM (inactive). The GI50 [58] was > 100 µM (inactive).
